Here are results for one compound from patent US11564913B2, “Compositions and methods for treating cancer” (Children's Hospital Medical Center, priority 2019, dated 2023).

SMILES strings stand for the structures.

The subject of data set [1] is Vav3−/− p190-BCR-ABL leukemia. The data set is described as follows: Vav3−/− p190-BCR-ABL leukemic mice, osmotic pumps. The format is in vivo. How it is done: FIG. 14: IODVA1 targets Vav3 in vitro and in vivo. (A) Ba/F3 cells expressing empty vector Mieg3 or p190-BCR-ABL1 were treated with vehicle control or IODVA1 (IO1, 3 μM) for 30 min and incubated with GST-Rac and glutathione beads. Beads were washed and the protein complexes were separated on SDS-PAGE and immunoblotted for pVav3. Input Vav3 was used as control. (B) Binding affinity (Kd) between IODVA1 and Vav3 (green), LARG (brown), and RacGDP (blue). […] Error bars=SD; N=3. (C) Quantification of the average number of colonies made by bone marrow wild-type (black) and Vav3^−/− (lilac) p190-BCR-ABL1 leukemic cells treated with vehicle control or IODVA1 (IO1, 1 and 3 μM) (* p≤0.05; ** p≤0.01; *** p≤0.001; ns, not significant). (D) Representative histogram data of the cell cycle analysis of wild-type (black and grey bars) and Vav3^−/− (dark and light lilac) bone marrow cells expressing p190-BCR-ABL and treated with vehicle control or IODVA1 (IO1, 3 μM) for 20 h. (E) Quantification by densitometry of the pVav3 band from FIG. 14A. (F) Kaplan-Meier plot showing survival of wild-type or Vav3^−/− p190-BCR-ABL1 leukemic mice post-treatment with osmotic pumps implanted subcutaneously and carrying vehicle control or IODVA1 (IO1, 1 mM). (G) Count (% leukemic progenitors in peripheral blood) of residual leukemic (EGFP^+-BCR-ABL1) cells at week 1 and 2 post-treatment for mice from (F). […]

The test system of data set [2] is MDA-MB-231 cells expressing shVav3. The data set is described as follows: Viability and proliferation, trypan blue exclusion. The settings on record: 0.1-1 μM. The class given is cell-based, human. Here is the method:
FIG. 16: IODVA1 decreases levels of pVav3 in in vitro and in vivo models of triple negative breast cancer. (A) Immunoblot and quantification of Vav3 protein in lysates of MDA-MB-231 triple negative breast cancer cells stably expressing scrambled or Vav3-targeting shRNAs. Viability of the MDA-MB-231 cells stably expressing shVav3 in the presence of IODVA1 (0-1 μM). Cells were grown in the presence of IODVA1 and counted by trypan blue exclusion at the indicated time points. (B) MDA-MB-231 cells were incubated with IODVA1 (3 μM) for 15 min and the levels of phosphorylated Vav3 (pY173) were assessed by immunoblotting. (C) Immunohistochemical staining of phosphorylated Vav3 in tissue derived from MDA-MB-231 xenografts treated with vehicle control or IODVA1.
Next, we tested if IODVA1 is effective in another model of Vav3-dependent cancer. We chose MDA-MB-231 triple negative breast cancer cells because these cells express high endogenous levels of Vav3 (Chen, 2015) and because Vav3 is an acknowledged target in breast cancer (Chen, 2015; Lee, 2008; Aguilar, 2014; Citterio, 2012; Lorenzo-Martin. 2019). […] Second, we incubated MDA-MB-231 cells with IODVA1 (3 μM) for 15 min and analyzed the levels of phosphorylated Vav3 (pY173) by immunoblotting. […]

The nature of data set [3]: Peripheral blood counts (Hemavet) after 12 doses in xenograft mice. The format is in vivo. Particulars: end of four-week treatment (12 doses). Here is the method:
Peripheral blood collected after 12 doses of IODVA1 in tumor-bearing breast cancer xenograft animals were analyzed for blood counts with a Hemavet. No statistically significant changes in blood counts were detected between vehicle control and IODVA1 treated animals (N=4, mean, SEM).
At the end of the four-week treatment when mice were euthanized, peripheral blood was collected via cardiac puncture to check the effect of IODVA1 on white and red blood cells of treated mice for any sign of toxicity.
For xenograft studies, 1×10^6 MDA-MB-231 cells were suspended in PBS and injected into each inguinal mammary fat pad of nulliparous, 10-week old female athymic nude mice. Tumors were measured weekly with digital calipers and volume was calculated as [(π/6))×L×W^2] (Euhus et al., 1986; Tomayko and Reynolds, 1989). Treatment began eight weeks post-injection, when tumors reached 200 mm^3. Mice received intraperitoneal injections of 250 uL of diluent (5% DMSO in PBS) or […] of compound IODVA1 three times weekly for 4 weeks, for an average drug dose of 3.5 mg/kg. At necropsy, the mice were weighed and the tumors were excised, measured, weighed, fixed in 4% paraformaldehyde, and embedded in paraffin. Peripheral blood was collected by cardiac puncture and analyzed with a Hemavet (Drew Scientific, Miami Lakes, Fla., USA) for complete blood counts. […]

As for `OC1(c2ccccn2)N=C(Nc2nc3ccccc3[nH]2)N=C1c1ccccn1` (stereo not drawn) [IODVA1, (Z)-2-((1H-benzo[d]imidazol-2-yl)imino)-4,5-di(pyridin-2-yl)-2,5-dihydro-1H-imidazol-5-ol], the “response (survival) of Vav3−/− leukemic mice” value in data set [1] is given as “did not respond”. Further, the viability and proliferation result in data set [2] is reported as “no effect”. The “WBC, neutrophils, lymphocytes, monocytes, RBC, hemoglobin, hematocrit, MCV, MCH, MCHV, RDW, platelets, mean platelet volume versus vehicle” value in data set [3] is recorded as “no significant difference”.
